Laboratory results as given in US20020035058A1, “Isopentenyl pyrophosphate isomerase (IPI) and/or prenyl transferase inhibitors” (The University of Sheffield, priority 1996, published 2002).
Where two headings read alike, the source gives them in different places.

Key:
IPI (IPP isomerase) = IPI (IPP isomerase) (Homo sapiens, UniProt Q13907); assay: Inhibition of IPI (IPP isomerase) by bisphosphonates; format: biochemical; conditions: concentration required to inhibit enzyme activity by 50%
J774 macrophages [1] = assay: Loss of total cell viability, MTT reduction; format: cell-based; conditions: for IC50: read-out: concentration causing 50% loss of total cell viability
[2] = system: protein prenylation in J774 cells; assay: Protein prenylation: incorporation of mevalonate into proteins; format: cell-based; conditions: for incorporation of radiolabel (mevalonate) into protein bands: 100 μM, 24 h labelling period
Ras = assay: Immunoprecipitation of Ras: farnesylation of Ras; format: cell-based; conditions: 41 h
Rab6 = assay: Immunoprecipitation of Rab6: geranylgeranylation of Rab6; format: cell-based; conditions: 41 h
squalene synthase = target: T1, squalene synthase (Rattus norvegicus, UniProt Q02769); conditions: cited from earlier work
T1 sequence (Q02769 1-416): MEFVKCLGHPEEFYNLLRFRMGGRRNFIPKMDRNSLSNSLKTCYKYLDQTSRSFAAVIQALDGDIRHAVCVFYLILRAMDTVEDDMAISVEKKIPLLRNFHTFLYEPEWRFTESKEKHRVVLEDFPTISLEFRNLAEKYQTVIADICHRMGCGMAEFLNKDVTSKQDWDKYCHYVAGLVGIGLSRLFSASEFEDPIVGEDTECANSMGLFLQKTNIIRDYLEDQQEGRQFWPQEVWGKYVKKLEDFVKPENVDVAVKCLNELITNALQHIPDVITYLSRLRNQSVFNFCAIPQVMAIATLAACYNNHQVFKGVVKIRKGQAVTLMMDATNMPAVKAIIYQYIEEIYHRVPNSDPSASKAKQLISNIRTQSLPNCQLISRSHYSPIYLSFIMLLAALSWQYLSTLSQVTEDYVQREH

J774 macrophages [3] = assay: Assessment of apoptosis in J774 macrophages (nuclear morphology, DNA fragmentation); format: cell-based; conditions: 10-100 μM

IPI (IPP isomerase), sequence (Q13907 whole entry): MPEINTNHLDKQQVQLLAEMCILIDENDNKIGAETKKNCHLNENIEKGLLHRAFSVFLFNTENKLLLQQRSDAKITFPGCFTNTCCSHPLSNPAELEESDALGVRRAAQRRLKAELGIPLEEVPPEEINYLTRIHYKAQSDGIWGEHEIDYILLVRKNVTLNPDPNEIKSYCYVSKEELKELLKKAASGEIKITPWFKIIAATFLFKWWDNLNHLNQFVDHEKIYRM

With `NCCCC(O)(P(=O)(O)O)P(=O)(O)O` [ALENDRONATE, alendronate] as the compound, how does the IC50 (IPI (IPP isomerase)) read?
The IC50 was 75 nM.

And the “apoptosis and loss of cell viability with FPP or GGPP co-incubation” value (J774 macrophages [1]; 100 μM alendronate + 200 μM FPP or GGPP)?
Its value is “could be partially inhibited”.

What about the IC50 (J774 macrophages [1]; Mus musculus, J774 cells, after 48 h) of the same compound?
The IC50 was about 30 µM.

And the “incorporation of radiolabel (mevalonate) into protein bands” value [2]?
Its value is “markedly reduced”.

And the “farnesylated form of Ras after immunoprecipitation” value (Ras; 100 μM)?
The value was “barely detectable”.

What about the “geranylgeranylated form of Rab6 after immunoprecipitation” value (Rab6; 10 μM) of the same compound?
The value was “barely detectable”.

What about the “inhibition of squalene synthase” value (squalene synthase) of the same compound?
Its value is “not”.

What does the source list for `CCCCCN(C)CCC(O)(P(=O)(O)O)P(=O)(O)O` [IBANDRONATE, ibandronate]?
IC50 (IPI (IPP isomerase)): 35 nM; incorporation of radiolabel (mevalonate) into protein bands [2]: markedly reduced; inhibition of squalene synthase (squalene synthase): potent inhibitors

With `O=P(O)(O)C(O)(Cc1cccnc1)P(=O)(O)O` [RISEDRONATE, risedronate] as the compound, how does the IC50 (IPI (IPP isomerase)) read?
The IC50 was 22 nM.

And the IC50 (J774 macrophages [1]; Mus musculus, J774, 48 h)?
The IC50 was about 3 µM.

What does the source list for `O=P(O)(O)C(NC1CCCCCC1)P(=O)(O)O` [YM175]?
IC50 (IPI (IPP isomerase)): 35 nM; incorporation of radiolabel (mevalonate) into protein bands [2]: inhibited even more effectively; inhibition of squalene synthase (squalene synthase): potent inhibitors

Which “reduction in viability of J774 cells” value (J774 macrophages [1]; 750 μM) does the source give for `O=P(O)(O)C(Cl)(Cl)P(=O)(O)O` [clodronate] here?
Its value is “substantial reduction”.

And the “protein prenylation and synthesis of radiolabelled dye-front compounds” value ([2]; 750 μM)?
The value was “did not affect”.

For `CC[C@H](C)C(=O)O[C@H]1CCC=C2C=C[C@H](C)[C@H](CC[C@@H]3C[C@@H](O)CC(=O)O3)[C@H]21` [mevastatin], which “loss of cell viability with cycloheximide co-incubation” value (J774 macrophages [1]; 15 μM mevastatin + 0.5 μM cycloheximide, 48 h) is on record?
The value was “could be prevented”.

What about the IC50 (J774 macrophages [1]; J774 cells, after 48 h) of the same compound?
The IC50 was about 10 µM.

What about the “loss of cell viability and apoptosis with FPP, GGPP or mevalonic acid lactone co-incubation” value (J774 macrophages [1]; mevastatin + 200 μM FPP, GGPP or mevalonic acid lactone) of the same compound?
The value was “prevented (at least partially)”.

And the “proportion of J774 cells with features typical of apoptosis” value (J774 macrophages [3])?
The value was “dose-dependent increase”.

And the “farnesylated form of Ras after immunoprecipitation” value (Ras; 15 μM)?
The value was “Identical results”.

What about the “geranylgeranylated form of Rab6 after immunoprecipitation” value (Rab6; 11 μM) of the same compound?
Its value is “barely detectable”.
